One may read the IC50 as the concentration that inhibits the measured activity by half.

Data set [1] concerns MCF-7 cells. The data set is described as follows: MTT cytotoxicity assay, MCF-7. The class given is cell-based. Particulars: Homo sapiens, MCF7, 72 h, read-out: IC50 MCF-7, MTT, 72 h, mean ± SD. Background: Tetrazolium dyes change colour on reduction, which living cells bring about.
Data set [2] deals with A549 cells. Put plainly: MTT cytotoxicity assay, A549. The class given is cell-based. As to conditions: Homo sapiens, A549, 72 h, read-out: IC50 A549, MTT, 72 h, mean ± SD.
The test system of data set [3] is HepG2 cells. Put plainly: MTT cytotoxicity assay, HepG2. The format is cell-based. Particulars: Homo sapiens, HepG2, 72 h, read-out: IC50 HepG2, MTT, 72 h, mean ± SD.
The conditions of data set [4]: previous investigation; cited from earlier work.
Data set [5] has as its system EGFR. Particulars: read-out: IC50 (EGFR); previous investigation; cited from earlier work.
Data set [6] deals with A549 cells. The data set is described as follows: Cell cycle analysis by flow cytometry. Particulars: 12 h, 4.20 μM 14d, 5.38 μM 19b; for Freq Sub-G1: control 0.07; for Freq G2 (percentage of cells in G2/M phase): control 18.21; for Freq S: control 32.62; for Freq G1: control 48.59.
In data set [7] the test system is A549 cells. The data set is described as follows: Acridine orange. Particulars: 12 h, 4.20 μM 14d, 5.38 μM 19b. The format is cell-based.

In the case of `COc1cc2ncnc(Nc3ccc(F)c(Cl)c3)c2cc1NC(=O)N/N=C/c1ccc(C)o1` [11b, (E)-N-(4-((3-chloro-4-fluorophenyl)amino)-7-methoxyquinazolin-6-yl)-2-((5-methylfuran-2-yl)methylene)hydrazine carboxamide], the IC50 worked out at 35.2 ± 81 µM in data set [1], 28.2 ± 1.34 µM in data set [2] and 30.2 ± 1.16 µM in data set [3].
Take `O=C(N/N=C/c1ccc(O)cc1)Nc1cc2c(Nc3ccc(F)c(Cl)c3)ncnc2cc1O[C@H]1CCOC1` [BMC201725-9o, (S,E)-N-(4-((3-chloro-4-fluorophenyl)amino)-7-((tetrahydrofuran-3-yl)oxy)quinazolin-6-yl)-2-(4-hydroxybenzylidene)hydrazine carboxamide]: in data set [4], the solubility result is “unsatisfactory solubility”. Moreover, the IC50 in data set [5] is 0.056 µM.
For the compound `O=C(N/N=C/CN1CCCCC1)Nc1cc2c(Nc3ccc(F)c(Cl)c3)ncnc2cc1O[C@H]1CCOC1` [14d, (S,E)-N-(4-((3-chloro-4-fluorophenyl)amino)-7-((tetrahydrofuran-3-yl)oxy)quinazolin-6-yl)-2-(2-(piperidin-1-yl)ethylidene)hydrazine carboxamide], in data set [6], the “Freq Sub-G1” value is on record as 0.06%, the “Freq G2 (percentage of cells in G2/M phase)” value stood at 23.62%, the “Freq S” value is 48.44% and the “Freq G1” value was determined as 27.08%. For the same compound, the “Morphologic changes of A549 cells (AO staining), apoptosis” value in data set [7] is listed as “can induce A549 cell apoptosis”.
For the compound `O=C(N/N=C/c1ccco1)Nc1cc2c(Nc3ccc(F)c(Cl)c3)ncnc2cc1O[C@H]1CCOC1` [10a, (S,E)-N-(4-((3-chloro-4-fluorophenyl)amino)-7-((tetrahydrofuran-3-yl)oxy)quinazolin-6-yl)-2-(furan-2-ylmethylene)hydrazine carboxamide], the IC50 in data set [1] came to 33.4 ± 0.97 µM; in data set [3], 35.2 ± 1.53 µM.
Regarding `CN(C)C/C=C/C(=O)Nc1cc2c(Nc3ccc(F)c(Cl)c3)ncnc2cc1O[C@H]1CCOC1` [Afatinib, reference compound], in data set [6], the “Freq Sub-G1” value was 0.03%, the “Freq G2 (percentage of cells in G2/M phase)” value is on record as 47.45%, the “Freq S” value turned out to be 12.92% and the “Freq G1” value stood at 39.41%.
As for `O=C(N/N=C/c1ccc[nH]1)Nc1cc2c(Nc3ccc(F)c(Cl)c3)ncnc2cc1O[C@H]1CCOC1` [10e, (S,E)-2-((1H-pyrrol-2-Yl)methylene)-N-(4-((3-chloro-4-fluorophenyl)amino)-7-((tetrahydrofuran-3-Yl)oxy)quinazolin-6-Yl)hydrazine carboxamide], the IC50 in data set [1] turned out to be 1.21 ± 0.19 µM; in data set [2], 2.41 ± 0.32 µM; in data set [3], 0.59 ± 0.02 µM.
`CN(C)CCn1cccc1/C=N/NC(=O)Nc1cc2c(Nc3ccc(F)c(Cl)c3)ncnc2cc1O[C@H]1CCOC1` [19b, (S,E)-N-(4-((3-chloro-4-fluorophenyl)amino)-7-((tetrahydrofuran-3-yl)oxy)quinazolin-6-yl)-2-((1-(2-(dimethylamino)ethyl)-1H-pyrrol-2-yl)methylene)hydrazine carboxamide]: in data set [6], the “Freq Sub-G1” value stood at 0.05%, the “Freq G2 (percentage of cells in G2/M phase)” value is 22.31%, the “Freq S” value is 43.84% and the “Freq G1” value is listed as 33.23%. For the same compound, the “Morphologic changes of A549 cells (AO staining), apoptosis” value in data set [7] was “can induce A549 cell apoptosis”.
As for `CCc1ccc(/C=N/NC(=O)Nc2cc3c(Nc4ccc(F)c(Cl)c4)ncnc3cc2OC)s1` [11d, (E)-N-(4-((3-chloro-4-fluorophenyl)amino)-7-methoxyquinazolin-6-yl)-2-((5-ethylthiophen-2-yl)methylene)hydrazine carboxamide], the IC50 amounted to 35.3 ± 0.42 µM in data set [2] and 35.2 ± 1.08 µM in data set [3].
For `COc1cc2ncnc(Nc3ccc(F)c(Cl)c3)c2cc1NC(=O)N/N=C/c1ccco1` [11a, (E)-N-(4-((3-chloro-4-fluorophenyl)amino)-7-methoxyquinazolin-6-yl)-2-(furan-2-ylmethylene)hydrazine carboxamide] the same measures were 26.2 ± 1.23 µM and 29.7 ± 1.86 µM.
For `Cc1ccc(/C=N/NC(=O)Nc2cc3c(Nc4ccc(F)c(Cl)c4)ncnc3cc2O[C@H]2CCOC2)s1` [10c, (S,E)-N-(4-((3-chloro-4-fluorophenyl)amino)-7-((tetrahydrofuran-3-yl)oxy)quinazolin-6-yl)-2-((5-methylthiophen-2-yl)methylene)hydrazine carboxamide], the IC50 in data set [1] is 26.1 ± 1.33 µM; in data set [2], 28.4 ± 0.56 µM; in data set [3], 29.2 ± 1.43 µM.
On to `Cc1ccc(/C=N/NC(=O)Nc2cc3c(Nc4ccc(F)c(Cl)c4)ncnc3cc2O[C@H]2CCOC2)o1` [10b, (S,E)-N-(4-((3-Chloro-4-fluorophenyl)amino)-7-((tetrahydrofuran-3-Yl)Oxy)quinazolin-6-Yl)-2-((5-methylfuran-2-Yl)methylene)hydrazine carboxamide], for which the IC50 in data set [1] came out at 34.8 ± 1.01 µM; in data set [2], 28.2 ± 1.34 µM; in data set [3], 33.2 ± 1.46 µM.
With `CCc1ccc(/C=N/NC(=O)Nc2cc3c(Nc4ccc(F)c(Cl)c4)ncnc3cc2O[C@H]2CCOC2)s1` [10d, (S,E)-N-(4-((3-chloro-4-fluorophenyl)amino)-7-((tetrahydrofuran-3-Yl)oxy)quinazolin-6-Yl)-2-((5-ethylthiophen-2-Yl)methylene)hydrazine carboxamide], the IC50 in data set [2] turned out to be 34.23 ± 0.31 µM; in data set [3] it was 36.2 ± 1.78 µM.
Consider `COc1cc2ncnc(Nc3ccc(F)c(Cl)c3)c2cc1NC(=O)N/N=C/c1ccc(C)s1` [11c, (E)-N-(4-((3-chloro-4-fluorophenyl)amino)-7-methoxyquinazolin-6-yl)-2-((5-methylthiophen-2-yl)methylene)hydrazine carboxamide], for which the IC50 in data set [1] was determined as 28.1 ± 1.13 µM; in data set [2], 29.3 ± 0.36 µM; in data set [3] it was 27.4 ± 1.03 µM.

The values above are taken from article PMC6232652 (Computational and Structural Biotechnology Journal, 2018).
